Legend:
Experiment in all cases: binding to VI16742 beads (HeLa lysate, SILAC MS)
[1] = target: p38a (MAPK14, IPI00221141) (Homo sapiens, UniProt Q16539)
In short: (§1)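 Specific retention on the inhibitor resin served as the read-out of binding. The bait is a broadly selective kinase inhibitor built on a pyrido[2,3-d]pyrimidine scaffold, used for affinity capture from lysate.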

[2] = target: T1, CRK7 (CRKRS, IPI00868781) (Homo sapiens, UniProt Q9NYV4)
T1 construct: endogenous in cells; host or cells: HeLa S3 cell lysate
T1 sequence (Q9NYV4 whole entry): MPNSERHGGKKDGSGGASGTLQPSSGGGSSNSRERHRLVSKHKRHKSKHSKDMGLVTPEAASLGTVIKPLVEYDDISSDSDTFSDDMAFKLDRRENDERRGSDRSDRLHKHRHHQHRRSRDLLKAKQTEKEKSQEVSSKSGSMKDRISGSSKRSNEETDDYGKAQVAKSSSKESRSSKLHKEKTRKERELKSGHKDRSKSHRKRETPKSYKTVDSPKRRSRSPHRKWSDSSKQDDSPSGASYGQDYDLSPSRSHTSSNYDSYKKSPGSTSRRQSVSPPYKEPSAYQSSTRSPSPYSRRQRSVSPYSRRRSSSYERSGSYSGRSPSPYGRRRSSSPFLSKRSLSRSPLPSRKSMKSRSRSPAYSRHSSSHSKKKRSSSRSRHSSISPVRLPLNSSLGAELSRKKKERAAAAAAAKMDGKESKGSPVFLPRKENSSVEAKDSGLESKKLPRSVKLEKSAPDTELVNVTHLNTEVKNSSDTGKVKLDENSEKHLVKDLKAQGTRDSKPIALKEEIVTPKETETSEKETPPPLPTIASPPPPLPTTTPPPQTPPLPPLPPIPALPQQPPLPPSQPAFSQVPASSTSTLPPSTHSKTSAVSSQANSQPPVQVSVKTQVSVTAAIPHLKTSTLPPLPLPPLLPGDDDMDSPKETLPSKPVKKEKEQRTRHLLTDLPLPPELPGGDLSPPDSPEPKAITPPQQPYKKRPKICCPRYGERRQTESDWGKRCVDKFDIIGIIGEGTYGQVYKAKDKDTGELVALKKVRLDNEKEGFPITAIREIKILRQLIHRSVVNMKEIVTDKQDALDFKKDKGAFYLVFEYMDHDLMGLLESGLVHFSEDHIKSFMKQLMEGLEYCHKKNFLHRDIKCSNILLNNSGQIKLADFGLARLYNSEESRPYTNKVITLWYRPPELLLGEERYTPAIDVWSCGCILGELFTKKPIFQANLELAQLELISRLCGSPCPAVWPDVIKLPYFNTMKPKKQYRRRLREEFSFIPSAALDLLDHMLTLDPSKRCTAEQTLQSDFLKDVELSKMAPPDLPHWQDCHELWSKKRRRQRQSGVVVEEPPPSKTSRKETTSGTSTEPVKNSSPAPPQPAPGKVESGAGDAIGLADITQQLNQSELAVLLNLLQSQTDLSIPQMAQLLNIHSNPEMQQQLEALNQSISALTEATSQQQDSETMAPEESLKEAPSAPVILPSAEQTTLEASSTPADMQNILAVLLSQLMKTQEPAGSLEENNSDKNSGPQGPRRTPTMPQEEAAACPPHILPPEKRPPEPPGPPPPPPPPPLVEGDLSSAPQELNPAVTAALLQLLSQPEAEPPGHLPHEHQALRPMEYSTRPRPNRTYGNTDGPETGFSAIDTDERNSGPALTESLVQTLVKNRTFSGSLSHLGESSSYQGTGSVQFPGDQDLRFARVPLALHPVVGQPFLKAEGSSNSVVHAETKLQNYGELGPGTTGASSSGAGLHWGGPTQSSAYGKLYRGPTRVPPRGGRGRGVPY
In short: as §1

[3] = target: T2, CDK6 (IPI00023529) (Homo sapiens, UniProt Q00534)
T2 construct: endogenous in cells; host or cells: HeLa S3
T2 sequence (Q00534 whole entry): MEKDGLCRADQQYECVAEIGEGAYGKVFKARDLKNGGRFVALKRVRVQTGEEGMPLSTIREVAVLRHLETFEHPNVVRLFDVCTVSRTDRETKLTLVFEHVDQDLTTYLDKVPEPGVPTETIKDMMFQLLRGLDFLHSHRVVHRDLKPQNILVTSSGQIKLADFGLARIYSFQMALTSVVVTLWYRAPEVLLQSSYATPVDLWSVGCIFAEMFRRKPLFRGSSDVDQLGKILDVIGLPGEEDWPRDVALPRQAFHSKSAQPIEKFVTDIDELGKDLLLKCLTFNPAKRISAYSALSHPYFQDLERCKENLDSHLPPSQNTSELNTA
In short: as §1

[4] = target: T3, MAP2K3 (IPI00218858) (Homo sapiens, UniProt P46734)
T3 construct: endogenous in cells; host or cells: HeLa S3
T3 sequence (P46734 1-347): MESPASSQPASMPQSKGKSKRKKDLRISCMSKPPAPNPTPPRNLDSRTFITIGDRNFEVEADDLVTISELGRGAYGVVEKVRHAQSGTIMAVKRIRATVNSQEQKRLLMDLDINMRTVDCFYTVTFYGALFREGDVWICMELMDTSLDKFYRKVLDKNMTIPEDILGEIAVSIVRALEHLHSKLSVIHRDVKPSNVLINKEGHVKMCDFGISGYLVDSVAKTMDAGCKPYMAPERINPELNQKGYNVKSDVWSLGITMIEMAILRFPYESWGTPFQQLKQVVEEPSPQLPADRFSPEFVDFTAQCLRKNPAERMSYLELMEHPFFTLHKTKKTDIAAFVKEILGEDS
In short: as §1

[5] = target: T4, ILK (IPI00013219) (Homo sapiens, UniProt Q13418)
T4 construct: endogenous in cells; host or cells: HeLa S3
T4 sequence (Q13418 1-452): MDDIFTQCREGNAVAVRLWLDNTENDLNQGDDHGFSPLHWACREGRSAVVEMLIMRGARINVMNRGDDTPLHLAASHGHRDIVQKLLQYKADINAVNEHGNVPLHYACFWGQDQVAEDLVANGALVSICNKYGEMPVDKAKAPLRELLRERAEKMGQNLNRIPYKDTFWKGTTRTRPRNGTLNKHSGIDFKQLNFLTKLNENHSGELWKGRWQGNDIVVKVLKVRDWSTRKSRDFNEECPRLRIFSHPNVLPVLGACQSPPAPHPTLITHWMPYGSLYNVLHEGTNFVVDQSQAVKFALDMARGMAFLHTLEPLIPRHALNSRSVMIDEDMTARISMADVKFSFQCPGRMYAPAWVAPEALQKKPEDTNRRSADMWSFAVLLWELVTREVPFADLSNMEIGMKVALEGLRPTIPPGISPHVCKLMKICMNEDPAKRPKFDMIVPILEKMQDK
In short: as §1

[6] = target: T5, SART3 (IPI00006025) (Homo sapiens, UniProt Q15020)
T5 construct: endogenous in cells; host or cells: HeLa S3
T5 sequence (Q15020 1-963): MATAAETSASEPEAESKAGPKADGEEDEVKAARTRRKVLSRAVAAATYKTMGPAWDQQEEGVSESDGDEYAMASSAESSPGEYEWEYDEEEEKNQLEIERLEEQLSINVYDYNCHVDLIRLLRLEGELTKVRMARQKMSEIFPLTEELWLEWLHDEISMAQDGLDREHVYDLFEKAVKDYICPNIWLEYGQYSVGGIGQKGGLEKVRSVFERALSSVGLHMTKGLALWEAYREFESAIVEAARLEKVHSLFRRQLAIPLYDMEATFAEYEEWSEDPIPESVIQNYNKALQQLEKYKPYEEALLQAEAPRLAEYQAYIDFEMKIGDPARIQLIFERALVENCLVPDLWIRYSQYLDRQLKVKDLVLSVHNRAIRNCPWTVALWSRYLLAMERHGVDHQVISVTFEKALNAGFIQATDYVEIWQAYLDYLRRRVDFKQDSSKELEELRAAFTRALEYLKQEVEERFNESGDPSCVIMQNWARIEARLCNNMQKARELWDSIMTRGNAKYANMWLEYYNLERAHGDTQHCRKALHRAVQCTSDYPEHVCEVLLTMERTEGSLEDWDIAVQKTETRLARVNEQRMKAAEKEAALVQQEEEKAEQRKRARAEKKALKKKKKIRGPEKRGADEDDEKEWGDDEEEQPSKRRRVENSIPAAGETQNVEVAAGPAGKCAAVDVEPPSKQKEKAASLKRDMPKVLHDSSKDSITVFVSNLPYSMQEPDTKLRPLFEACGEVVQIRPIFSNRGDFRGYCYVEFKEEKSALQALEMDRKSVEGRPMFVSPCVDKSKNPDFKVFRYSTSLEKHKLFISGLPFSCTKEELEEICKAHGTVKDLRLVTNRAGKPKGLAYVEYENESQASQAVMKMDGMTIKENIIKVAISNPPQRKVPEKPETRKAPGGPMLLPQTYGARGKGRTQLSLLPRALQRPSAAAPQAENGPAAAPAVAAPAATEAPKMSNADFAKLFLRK
In short: as §1

[7] = target: T6, APRT (IPI00218693) (Homo sapiens, UniProt P07741)
T6 construct: endogenous in cells; host or cells: HeLa S3
T6 sequence (P07741 1-180): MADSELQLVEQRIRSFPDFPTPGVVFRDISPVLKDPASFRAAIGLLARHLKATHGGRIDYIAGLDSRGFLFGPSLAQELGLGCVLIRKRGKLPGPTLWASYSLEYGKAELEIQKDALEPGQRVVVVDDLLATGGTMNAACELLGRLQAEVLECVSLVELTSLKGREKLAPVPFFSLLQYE
In short: as §1

[8] = control beads vs first incubation

Chain of p38a (MAPK14, IPI00221141) (Q16539 1-360 isoform Q16539-2): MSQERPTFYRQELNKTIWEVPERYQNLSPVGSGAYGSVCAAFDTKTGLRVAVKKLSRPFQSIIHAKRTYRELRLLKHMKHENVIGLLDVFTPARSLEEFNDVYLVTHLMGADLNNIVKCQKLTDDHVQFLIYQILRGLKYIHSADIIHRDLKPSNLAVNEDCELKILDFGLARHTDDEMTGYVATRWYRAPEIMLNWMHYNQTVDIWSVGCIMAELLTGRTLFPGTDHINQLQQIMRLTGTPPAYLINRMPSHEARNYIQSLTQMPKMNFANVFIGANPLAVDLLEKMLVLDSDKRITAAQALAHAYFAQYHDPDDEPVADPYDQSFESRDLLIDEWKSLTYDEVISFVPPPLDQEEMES

CC(C)n1c(=O)ccc2cnc(Nc3ccc(OCCN)cc3)nc21 [V16742]
r (5 h/2.5 h INC. TIME) ([1]; 5 h vs 2.5 h incubation time): 2.16
rAVERAGE (CTRL/1 INC) [1, 8]: 0.10
Ki ([1]; immobilized VI16742): 92.8 µM
rAVERAGE (2 INC/1 INC) ([1]; second vs first incubation): 0.64
r (3 MG/1 MG LYSATE) ([2]; 3 mg vs 1 mg lysate): 3.21
r (5 h/2.5 h INC. TIME) ([2]; 5 h vs 2.5 h incubation time): 1.04
rAVERAGE (CTRL/1 INC) [2, 8]: 0.07
Ki ([2]; immobilized VI16742): 90.7 µM
rAVERAGE (2 INC/1 INC) ([2]; second vs first incubation): 0.64
r (5 h/2.5 h INC. TIME) ([3]; 5 h vs 2.5 h incubation time): 0.75
rAVERAGE (CTRL/1 INC) [3, 8]: 0.10
Ki ([3]; immobilized VI16742): 119 µM
rAVERAGE (2 INC/1 INC) ([3]; second vs first incubation): 0.70
r (5 h/2.5 h INC. TIME) ([4]; 5 h vs 2.5 h incubation time): 1.60
rAVERAGE (CTRL/1 INC) [4, 8]: 0.05
Ki ([4]; immobilized VI16742): 150 µM
rAVERAGE (2 INC/1 INC) ([4]; second vs first incubation): 0.74
r (5 h/2.5 h INC. TIME) ([5]; 5 h vs 2.5 h incubation time): 1.47
rAVERAGE (CTRL/1 INC) [5, 8]: 0.03
Ki ([5]; immobilized VI16742): 172 µM
rAVERAGE (2 INC/1 INC) ([5]; second vs first incubation): 0.77
r (3 MG/1 MG LYSATE) ([6]; 3 mg vs 1 mg lysate): 2.07
r (5 h/2.5 h INC. TIME) ([6]; 5 h vs 2.5 h incubation time): 0.90
rAVERAGE (CTRL/1 INC) [6, 8]: 0.05
Ki ([6]; immobilized VI16742): 126 µM
rAVERAGE (2 INC/1 INC) ([6]; second vs first incubation): 0.71
r (3 MG/1 MG LYSATE) ([7]; 3 mg vs 1 mg lysate): 1.04
r (5 h/2.5 h INC. TIME) ([7]; 5 h vs 2.5 h incubation time): 1.40
rAVERAGE (CTRL/1 INC) [7, 8]: 0.05
Ki ([7]; immobilized VI16742): 223 µM
rAVERAGE (2 INC/1 INC) ([7]; second vs first incubation): 0.81

Reference: patent publication US8959984B2, “Proteome-wide quantification of small molecule binding to cellular target proteins” (priority 2007, dated 2015)
